We go through 28 compounds from PubChem BioAssay AID192 (DTP/NCI, 2004).

Several values for one entry are separate records, joined by “and”; a condition that tells them apart may be missing. Equal values may be shown once. Toxic doses and inconclusive results are not listed.

This assay deals with BDF1 mice, B16 melanoma ip, median survival T/C. Kind of assay: NCI In Vivo Anticancer Drug Screen. Data for tumor model B16 Melanoma (intraperitoneal) in B6D2F1 (BDF1) mice. Conditions: endpoint: median survival time, higher = longer survival. In outline: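 Transplantable tumor model; survival or tumor size measured; reported as T/C, treated over vehicle control.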
Where [1] appears, read: dose: 3.12 mg/kg/injection, schedule: Q01DX009 (ip), vehicle: Klucel (hydroxypropylcellulose) (HPC).
[2] abbreviates: dose: 6.25 mg/kg/injection, schedule: Q01DX009 (ip), vehicle: Klucel (hydroxypropylcellulose) (HPC).
The mark [3] stands for this setting: dose: 12.5 mg/kg/injection, schedule: Q01DX009 (ip), vehicle: Klucel (hydroxypropylcellulose) (HPC).
The mark [4] stands for this setting: dose: 25.0 mg/kg/injection, schedule: Q01DX009 (ip), vehicle: Klucel (hydroxypropylcellulose) (HPC).
Setting [5] is: dose: 50.0 mg/kg/injection, schedule: Q01DX009 (ip), vehicle: Klucel (hydroxypropylcellulose) (HPC).
Where [6] appears, read: dose: 100.0 mg/kg/injection, schedule: Q01DX009 (ip), vehicle: Klucel (hydroxypropylcellulose) (HPC).
The mark [7] stands for this setting: dose: 200.0 mg/kg/injection, schedule: Q01DX009 (ip), vehicle: Klucel (hydroxypropylcellulose) (HPC).
The mark [8] stands for this setting: dose: 25.0 mg/kg/injection, schedule: Q01DX009 (ip), vehicle: saline with Tween-80.
Setting [9] is: dose: 50.0 mg/kg/injection, schedule: Q01DX009 (ip), vehicle: saline with Tween-80.
[10] abbreviates: dose: 50.0 mg/kg/injection, schedule: Q01DX009 (ip), vehicle: saline.
Setting [11] is: dose: 100.0 mg/kg/injection, schedule: Q01DX009 (ip), vehicle: saline.
Where [12] appears, read: dose: 200.0 mg/kg/injection, schedule: Q01DX009 (ip), vehicle: saline.
Where [13] appears, read: dose: 400.0 mg/kg/injection, schedule: Q01DX009 (ip), vehicle: saline.
Setting [14] is: dose: 25.0 mg/kg/injection, schedule: Q04DX003 (ip), vehicle: Klucel (hydroxypropylcellulose) (HPC).
Where [15] appears, read: dose: 50.0 mg/kg/injection, schedule: Q04DX003 (ip), vehicle: Klucel (hydroxypropylcellulose) (HPC).
[16] abbreviates: dose: 12.5 mg/kg/injection, schedule: Q01DX009 (ip), vehicle: saline.
Setting [17] is: dose: 25.0 mg/kg/injection, schedule: Q01DX009 (ip), vehicle: saline.
The mark [18] stands for this setting: dose: 100.0 mg/kg/injection, schedule: Q01DX009 (ip), vehicle: saline with Tween-80.
[19] abbreviates: dose: 100.0 mg/kg/injection, schedule: Q04DX003 (ip), vehicle: Klucel (hydroxypropylcellulose) (HPC).
Where [20] appears, read: dose: 200.0 mg/kg/injection, schedule: Q04DX003 (ip), vehicle: Klucel (hydroxypropylcellulose) (HPC).
The mark [21] stands for this setting: dose: 400.0 mg/kg/injection, schedule: Q04DX003 (ip), vehicle: Klucel (hydroxypropylcellulose) (HPC).
Setting [22] is: dose: 400.0 mg/kg/injection, schedule: Q01DX009 (ip), vehicle: Klucel (hydroxypropylcellulose) (HPC).
Where [23] appears, read: dose: 6.25 mg/kg/injection, schedule: Q01DX009 (ip), vehicle: saline.
Setting [24] is: dose: 200.0 mg/kg/injection, schedule: Q01DX009 (ip), vehicle: saline with Tween-80.
Where [25] appears, read: dose: 400.0 mg/kg/injection, schedule: Q01DX009 (ip), vehicle: saline with Tween-80.

As for `COc1cccc(NC(=O)CCC(=O)O)c1`, the T/C is, setting by setting: (dose: 1.56 mg/kg/injection, schedule: Q01DX009 (ip), vehicle: Klucel (hydroxypropylcellulose) (HPC)) 89 % of control; under setting [1], 102 % of control; under setting [2], 92 % of control; under setting [3], 94 % of control.

Regarding `O=c1ccc2ccccc2o1`, the T/C runs as follows: under setting [4], 100 % of control; under setting [5], 105 % of control; under setting [6], 111 % of control; under setting [7], 101 % of control.

On to `O=C(Nc1ccccc1C(F)(F)F)c1ccc(C(=O)Nc2ccccc2C(F)(F)F)cc1`, for which the T/C is 88 % of control (dose: 8.0 mg/kg/injection, schedule: Q01DX009 (ip), vehicle: saline with Tween-80); 90 % of control (dose: 12.0 mg/kg/injection, schedule: Q01DX009 (ip), vehicle: saline with Tween-80); 212 % of control (dose: 12.5 mg/kg/injection, schedule: Q01DX009 (ip), vehicle: saline with Tween-80); 88 % of control (dose: 18.0 mg/kg/injection, schedule: Q01DX009 (ip), vehicle: saline with Tween-80); 171 % of control under setting [8]; 156 % of control under setting [9].

In the case of `CC(NC(=O)C(N)CCC(=O)O)C(=O)O` (stereo not given), the T/C reads like this: under setting [10], 97 % of control; under setting [11], 90 % of control; under setting [12], 90 % of control; under setting [13], 94 % of control.

`C=CCC(CC)C(=O)Cl` (stereo not given): the T/C runs as follows: (dose: 12.5 mg/kg/injection, schedule: Q04DX003 (ip), vehicle: other) 117 % of control; (dose: 25.0 mg/kg/injection, schedule: Q04DX003 (ip), vehicle: other) 114 % of control; (dose: 50.0 mg/kg/injection, schedule: Q04DX003 (ip), vehicle: other) 96 % of control; (dose: 100.0 mg/kg/injection, schedule: Q04DX003 (ip), vehicle: other) 88 % of control.

`CC(Br)C1(c2cccc([N+](=O)[O-])c2)OCCO1` (stereo not given): the T/C is 94 % of control under setting [14] and 92 % of control under setting [15].

With `CCCC1(CCC)CN(C)C1=O`, the T/C was 91 % of control under setting [16]; 89 % of control under setting [17]; 100 % of control under setting [10]; 106 % of control under setting [11]; 93 % of control under setting [12].

`CC(C)c1ccc(C2CCCCC2O)cc1` (stereo not given): the T/C under setting [9] was 94 % of control and the T/C under setting [18] was 88 % of control.

Turning to `O=[N+]([O-])c1ccc(/C=C/c2ccccc2)c([N+](=O)[O-])c1`, the T/C is 97 % of control under setting [19], 96 % of control under setting [20] and 97 % of control under setting [21].

Turning to `CCc1ccccc1NC(=O)Nc1ccccc1C`, the T/C is, setting by setting: under setting [19], 87 % of control; under setting [20], 87 % of control; under setting [21], 87 % of control.

Regarding `Cc1cccc(C)c1NC(=O)C(Cl)c1ccccc1` (stereo not given), the T/C was 103 % of control under setting [6], 93 % of control under setting [7] and 100 % of control under setting [22].

In the case of `C=COCC(C)C` (tested in a mixture with another compound), the T/C (dose: 0.39 mg/kg/injection, schedule: Q01DX009 (ip), vehicle: saline) was 108 % of control; the T/C (dose: 0.78 mg/kg/injection, schedule: Q01DX009 (ip), vehicle: saline) was 100 % of control; the T/C (dose: 1.56 mg/kg/injection, schedule: Q01DX009 (ip), vehicle: saline with Tween-80) is 88 % of control; the T/C (dose: 1.56 mg/kg/injection, schedule: Q01DX009 (ip), vehicle: saline) was 88 % of control and 94 % of control; the T/C (dose: 3.13 mg/kg/injection, schedule: Q01DX009 (ip), vehicle: saline) was 89 % of control; the T/C under setting [23] was 86 % of control.

For `O=S(=O)(Nc1ccc(F)cc1)c1ccccc1`, the T/C under setting [6] is 96 % of control, the T/C under setting [7] is 99 % of control and the T/C under setting [22] was 97 % of control.

`Cc1c([C@H](C)[C@@H]2NC[C@@H](C)C[C@H]2O)ccc2c1C[C@H]1[C@H]2CC=C2C[C@@H](O)CC[C@@]21C`: the T/C (dose: 1.5 mg/kg/injection, schedule: Q01DX009 (ip), vehicle: saline) was 97 % of control and the T/C (dose: 3.0 mg/kg/injection, schedule: Q01DX009 (ip), vehicle: saline) was 104 % of control.

Consider `Cc1cccc(-c2nc3cc(Cl)ccc3c(=O)o2)c1`, for which the T/C by setting is: under setting [4], 100 % of control; under setting [14], 103 % of control; under setting [5], 107 % of control; under setting [15], 103 % of control; under setting [6], 100 % of control; under setting [19], 106 % of control.

Turning to `CN(C)c1ccc(C=Nc2ccc3c(c2)Cc2ccccc2-3)cc1`, the T/C was 106 % of control under setting [6], 93 % of control under setting [7] and 90 % of control under setting [22].

On to `O=C1c2ccccc2CC12OC2c1ccccc1` (stereo not given), for which the T/C by setting is: under setting [5], 94 % of control; under setting [6], 90 % of control; under setting [7], 103 % of control; under setting [22], 96 % of control.

Turning to `Nc1cc(N)cc(C(=O)c2ccccc2)c1`, the T/C under setting [18] was 93 % of control, the T/C under setting [24] is 97 % of control and the T/C under setting [25] is 93 % of control.

For `CCOC1=C(Br)C=CN(S(=O)(=O)c2ccc(C)cc2)c2ccc(OC)cc21`, the T/C under setting [19] was 96 % of control, the T/C under setting [20] was 90 % of control and the T/C under setting [21] is 91 % of control.

For `CC(C)CC(N)C(=O)OCc1ccccc1` (stereo not given), the T/C (dose: 100.0 mg/kg/injection, schedule: Q04DX003 (ip), vehicle: saline) is 109 % of control; the T/C under setting [12] was 93 % of control; the T/C (dose: 200.0 mg/kg/injection, schedule: Q04DX003 (ip), vehicle: saline) was 104 % of control; the T/C under setting [13] is 91 % of control; the T/C (dose: 400.0 mg/kg/injection, schedule: Q04DX003 (ip), vehicle: saline) is 100 % of control.

On to `CN(C)C1CCCCC1`, for which the T/C reads like this: under setting [3], 91 % of control; (dose: 12.5 mg/kg/injection, schedule: Q04DX003 (ip), vehicle: Klucel (hydroxypropylcellulose) (HPC)) 116 % of control; under setting [14], 100 % of control; under setting [5], 100 % of control; under setting [15], 91 % of control.

As for `CCOC(=O)Nc1ccc([N+](=O)[O-])cc1`, the T/C is, setting by setting: under setting [6], 113 % of control; under setting [7], 103 % of control.

With `Cc1cc(Cl)ccc1NC(=O)c1ccccc1C(=O)O`, the T/C under setting [6] is 96 % of control; the T/C under setting [19] was 93 % of control; the T/C under setting [7] is 100 % of control; the T/C under setting [20] was 96 % of control; the T/C under setting [21] was 106 % of control.

Regarding `O=[N+]([O-])c1ccc(N=Nc2c(Cl)cc(O)cc2Cl)cc1`, the T/C is, setting by setting: under setting [8], 101 % of control; under setting [9], 90 % of control; under setting [18], 88 % of control; under setting [24], 90 % of control.

With `CN(C(=S)S(=O)(=O)C12CC3CC(CC(C3)C1)C2)c1ccccc1`, the T/C under setting [1] is 98 % of control; the T/C under setting [2] was 98 % of control; the T/C under setting [3] is 95 % of control; the T/C under setting [4] was 95 % of control; the T/C under setting [5] was 88 % of control.

Turning to `O=C(C1CO1)C(Cl)(Cl)Cl` (stereo not given), the T/C under setting [16] was 105 % of control and the T/C under setting [17] was 110 % of control.

Turning to `O=C(O)C1CCCCC1C(=O)Nc1ccccc1C(F)(F)F` (stereo not given), the T/C is 90 % of control under setting [18], 90 % of control under setting [24] and 90 % of control under setting [25].

Consider `CN(C)CCCN1c2ccccc2CCc2ccc(Cl)cc21`, for which the T/C is, setting by setting: under setting [23], 101 % of control; under setting [16], 108 % of control; under setting [17], 115 % of control; under setting [10], 98 % of control.
